Measurements taken from patent US6569638B1, “Method for screening compounds for the treatment of neoplasia” (Cell Pathways, Inc, priority 2000, dated 2003).
Like-named read-outs stand apart in the source and are kept apart here.

Columns and labels:
PKG in SW480 cells = assay: Western blot of PKG expression; assay type: cell-based, human; conditions: 48 hours
Experimental: SW480 cells treated with exisulind as described previously are harvested from the microfuge tubes by rinsing once with ice-cold PBS. The cells are lysed by modified RIPA buffer for 15 minutes with agitation. The cell lysate is spun down in a cold room. The supernatants are transferred to fresh microcentrifuge tubes immediately after spinning. BioRad DC Protein Assay (Temecula, Calif.) is performed to determine the protein concentrations in samples. The samples are normalized for protein concentration, as described above.
50 μg of each sample is loaded to 10% SDS gel. SDS-PAGE is performed, and the proteins then are transferred to a nitrocellulose membrane. The blotted nitrocellulose membrane are blocked in freshly prepared TBST containing 5% nonfat dry milk for one hour at room temperature with constant agitation.
A goat-anti-PKG primary antibody is diluted to the recommended concentration/dilution in fresh TBST/5% nonfat dry milk. The nitrocellulose membrane is placed in the primary antibody solution and incubated one hour at room temperature with agitation. The nitrocellulose membrane is washed three times for ten minutes each with TBST. The nitrocellulose membrane is incubated in a solution containing a secondary POD conjugated rabbit anti-goat antibody for 1 hour at room temperature with agitation. The nitrocellulose membrane is washed three times for ten minutes each time with TBST. […]

[1] = tested on: PKG in SW480 colon cancer cells; assay: PKG assay of drug-treated cell lysates (GST-cGB-PDE5 solid phase substrate); assay type: cell-based, human; conditions: 48 hrs, exisulind 200, 400, 600 μM, E4021 0.1, 1, 10 μM, with and without added cGMP
Experimental: To test the effect of cGMP-specific PDE inhibition on neoplasia containing the APC mutation, SW480 colon cancer cells were employed. SW 480 is known to contain the APC mutation. About 5 million SW480 cells in RPMI 5% serum are added to each of 8 dishes:
2-10 cm dishes—30 μL DMSO vehicle control (without drug),
3-10 cm dishes—200 μM, 400 μM, 600 μM exisulind in DMSO, and
The dishes are incubated for 48 hrs at 37° C. in 5% CO2 incubator.
The liquid media are aspirated from the dishes (the cells will attach themselves to the dishes). The attached cells are washed in each dish with cold PBS, and 200 μL cell lysis buffer (i.e., 50 mM Tris-HCl, 1% NP-40, 150 mM NaCl, 1 mM EDTA, 1 mM Na3VO4, 1 mM NaF, 500 μM IBMX with proteinase inhibitors) is added to each dish. Immediately after the cell lysis buffer is added, the lysed cells are collected by scraping the cells off each dish. The cell lysate from each dish is transferred to a microfuge tube, and the microfuge tubes are incubated at 4° C. for 15 minutes while gently agitating the microfuge tubes to allow the cells to lyse completely. […]
For each control or drug cell lysate sample to be evaluated, the reaction is started by adding phosphorylation buffer containing 10 μCi ^32P-γ-ATP solution (200 μM ATP, 4.5 mM MgCl; 5 mM KH2PO4; 5 mM K2HPO4;) to each mixture. […]

[2] = assay type: in vivo; conditions: for body weight gain: rat, in vivo
From the text: Thus, on a single-dose basis, Compound B is not acutely toxic.

[3] = Seven-day dose-range finding study in rats; conditions: seven days
[4] = tested on: aberrant crypt foci (ACF); assay: Azoxymethane-induced aberrant crypt foci model; assay type: in vivo, male Fisher 344 rats; conditions: for % Control (ACF/colon) / Mean ACF/colon (+SE): free base; for Mean ACF/colon (+SE): 5 weeks
Experimental: The growth inhibition IC50 value obtained for Compound B was 0.7 μM in the SW-480 cell line. […] This established rodent model of azoxymethane (“AOM”)-induced carcinogenesis was used to assess the effects of Compound B (free base and salt) on colon cancer development in vivo. ACF are precursors to colonic tumors, and ACF inhibition is predictive of chemo-preventive efficacy.
In the rats in this experiment, ACF initiation was achieved by two consecutive weekly injections of the carcinogen. Compound B was administered one week prior to ACF initiation and for the duration of the experiment. ACFs were scored after 5 weeks of treatment. Compound B was administered orally to male Fisher 344 rats in the rat chow. Daily food consumption (mg/kg body weight) varied over the course of the study, and therefore Compound B dose was expressed a grams per kg of diet to provide a basis of comparison between doses. […] The experimental groups gained less weight than the controls, which was indicative of bioavailability. However, the weight differences were less than 10% and not considered to affect ACF formation.

SMILES	PKG level by Western blot (PKG in SW480 cells)	PKG activity relative to control [1]	body weight gain ([2]; ip, 1000 mg/kg)	body weight gain ([2]; po, 4000 mg/kg)	intraperitoneal LD50 ([2]; rats)	oral LD50 ([2]; rats) [mg/kg]	signs of toxicity ([2]; rats, single oral doses up to and including 2000 mg/kg, 0.5% carboxy-methylcellulose vehicle)	signs of toxicity ([3]; 50 mg/kg/day)	treatment-related effects ([3]; 500 mg/kg/day)	treatment-related effects ([3]; 2000 mg/kg/day)	% Control (ACF/colon) ([4]; 0.5 g/kg diet) [%]	Mean ACF/colon (+SE) ([4]; 0.5 g/kg diet)	% Control (ACF/colon) ([4]; 1 g/kg diet) [%]	Mean ACF/colon (+SE) ([4]; 1 g/kg diet)	% Control (ACF/colon) ([4]; 1.5 g/kg diet) [%]	Mean ACF/colon (+SE) ([4]; 1.5 g/kg diet)	% Control (ACF/colon) ([4]; 2.0 g/kg diet) [%]	Mean ACF/colon (+SE) ([4]; 2.0 g/kg diet)	body weight difference versus controls ([4]; rats, Compound B in rat chow, over the experiment)
CC1=C(CC(=O)O)c2cc(F)ccc2/C1=C\c1ccc(S(C)(=O)=O)cc1 [exisulind, 5-fluoro-2-methyl-1-(p-methylsulfonylbenzylidene)-3-indenylacetic acid]	the increase of PKG	causes PKG activity to increase in a dose-dependent manner	–	–	–	–	–	–	–	–	–	–	–	–	–	–	–	–	–
CC1=C(CC(=O)NCc2ccccc2)c2cc(F)ccc2/C1=C\c1ccncc1.Cl [Compound B, (Z)-5-fluoro-2-methyl-(4-pyridylidene)-3-(N-benzyl)indenylacetamide hydrochloride]	–	–	reduced body weight gain	body weight gains were slightly reduced	greater than 1000 mg/kg	> 4000	no observable signs of toxicity	no observable signs of toxicity	an increase in absolute and relative liver weights in female rats	labored breathing and/or abnormal respiratory sounds, decreased weights gains and food consumption in male rats, and increased liver weights in female rats	100	149 ± 14	75	111 ± 9	89	132 ± 4	72	107 ± 15	less than 10%
